In article PMC6001238, “Iterative Chemical Engineering of Vancomycin Leads to Novel Vancomycin Analogs With a High in Vitro Therapeutic Index” (Frontiers in Microbiology, 2018):
Converted amounts (≈) assume the structure as drawn. Read-outs that look alike come from different tables or passages of the source.

Assays:
[1] = test system: S. aureus VISA/HIP5827; test: MIC, broth microdilution, vancomycin-intermediate S. aureus VISA HIP5827; format: cell-based, Staphylococcus aureus
In short: (§1)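 Susceptibility was scored by broth microdilution (CLSI). In one instance each vancomycin analog or control antibiotic was tested in the presence of vancomycin, 10 μM final, and ultrapure water plus non-inoculated broth were included as controls.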

[2] = test system: MRSA KS89; test: MIC, broth microdilution, MRSA KS89; format: cell-based, Staphylococcus aureus
In short: as §1

[3] = test system: MRSA KS2; test: MIC, broth microdilution, MRSA KS2; format: cell-based, Staphylococcus aureus
In short: as §1

[4] = test system: S. aureus VSSA (ATCC 6538); test: MIC, broth microdilution, vancomycin-sensitive S. aureus (VSSA/MSSA, ATCC 6538); format: cell-based, Staphylococcus aureus
In short: as §1

[5] = test system: E. faecalis VSE 1; test: MIC, broth microdilution, vancomycin-sensitive E. faecalis (VSE 1); format: cell-based, Enterococcus faecalis; conditions: for MIC: read-out: MIC
In short: as §1

[6] = test system: L1210, CEM and HeLa cell lines; test: Cytostatic activity, average or summary over L1210, CEM and HeLa; format: cell-based
In short: (§2)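 Readout: Coulter cell number after drug exposure at 37°C. Durations differ by line (L1210 2 days; CEM 3 days; HeLa 4 days). Stock suspension 300,000–500,000 cells/mL, diluted by mixing with compound. Endpoint: IC50 vs negative control.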

[7] = test system: human T-lymphocyte (CEM) cells; test: Cytostatic activity, CEM cell proliferation; format: cell-based; conditions: mean ± SD of three experiments; highest concentration tested 250 µM; 3 days; read-out: Toxicity (IC50) CEM
In short: as §2

[8] = test system: E. faecalis VRE 37; test: MIC, broth microdilution, vancomycin-resistant E. faecalis VRE 37 (VanA); format: cell-based, Enterococcus faecalis; conditions: Enterococcus faecalis VRE 37 (vancomycin-resistant); read-out: MIC
In short: as §1

[9] = test system: Clostridium difficile AIU ribotype 027; test: MIC, plate drop assay, C. difficile AIU ribotype 027; format: cell-based; conditions: C. difficile AIU ribotype 027
In short: (§3)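 Twofold dilution series of test compounds were spotted onto C. difficile lawns in 0.4% BHI agar containing added calcium and magnesium salts. After overnight anaerobic incubation at 37°C, growth inhibition was scored by spot clearing; triplicate runs, ultrapure water negative control.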

[10] = test system: MRSA KS1; test: MIC, broth microdilution, MRSA KS1; format: cell-based, Staphylococcus aureus
In short: as §1

[11] = test system: E. faecalis VRE 53; test: MIC, broth microdilution, vancomycin-resistant E. faecalis VRE 53 (VanA); format: cell-based, Enterococcus faecalis; conditions: for MIC: read-out: MIC
In short: as §1

[12] = test system: E. coli XL-1 blue MRF'; test: MIC, broth microdilution, E. coli XL-1 blue MRF'; format: cell-based, Escherichia coli; conditions: E. coli XL-1 blue MRF'
Protocol: (§4) The minimum inhibitory concentration (MIC) was determined using the broth microdilution method according to the antimicrobial susceptibility testing standards of the clinical and laboratory standards institute ([Clinical and Laboratory Standards Institute [CLSI], 2012]). Ultrapure water and non-inoculated broth were used as controls. In one case, a final concentration of 10 μM vancomycin was included with the vancomycin analog or control antibiotic.

[13] = test system: Murine leukemia (L1210) cells; test: Cytostatic activity, L1210 cell proliferation; format: cell-based; conditions: mean ± SD of three experiments; highest concentration tested 250 µM; 2 days; read-out: Toxicity (IC50) L1210
In short: as §2

[14] = test system: B. subtilis PSB3; test: MIC, broth microdilution, B. subtilis PSB3; format: cell-based, Bacillus subtilis
Protocol: as §4

[15] = test system: E. faecalis VRE 29; test: MIC, broth microdilution, vancomycin-resistant E. faecalis VRE 29 (VanA); format: cell-based, Enterococcus faecalis
In short: as §1

[16] = test system: MRSA KS6; test: MIC, broth microdilution, MRSA KS6; format: cell-based, Staphylococcus aureus
In short: as §1

[17] = test system: E. faecalis VRE 6; test: MIC, broth microdilution, vancomycin-resistant E. faecalis VRE 6 (VanA); format: cell-based, Enterococcus faecalis; conditions: for MIC: read-out: MIC
In short: as §1

[18] = test system: human cervix carcinoma (HeLa) cells; test: Cytostatic activity, HeLa cell proliferation; format: cell-based; conditions: mean ± SD of three experiments; highest concentration tested 250 µM; 4 days; read-out: Toxicity (IC50) HeLa
In short: as §2

[19] = test system: S. aureus VRSA; test: MIC, broth microdilution, vancomycin-resistant S. aureus (VRSA); format: cell-based, Staphylococcus aureus
In short: as §1

[20] = test system: Clostridium difficile ATJ ribotype 014/20; test: MIC, plate drop assay, C. difficile ATJ ribotype 014/20; format: cell-based; conditions: C. difficile ATJ ribotype 014/20
In short: as §3

[21] = ratio of MIC of vancomycin and MIC of analogue

For `C#Cc1ccc(NC(=O)CNC(=O)C2NC(=O)C3NC(=O)C(NC(=O)C4NC(=O)C(CC(N)=O)NC(=O)C(NC(=O)C(CC(C)C)NC)C(O)c5ccc(c(Cl)c5)Oc5cc4cc(c5OC4OC(CO)C(O)C(O)C4OC4CC(C)(N)C(O)C(C)O4)Oc4ccc(cc4Cl)C3O)c3ccc(O)c(c3)-c3c(O)cc(O)cc32)cc1` (stereo not shown) [Vanc-N], the MIC ([1]; Staphylococcus aureus VISA/HIP5827, read-out: MIC) was 0.78 µM (≈ 1.25 µg/mL), the “MIC-fold improvement vs. vancomycin” value ([1]; VISA/HIP5827, ratio of MIC of vancomycin and MIC of analogue) was 8 and the “MIC-fold improvement vs. vancomycin” value ([2]; MRSA KS8, ratio of MIC of vancomycin and MIC of analogue) was 2. The MIC ([2]; Staphylococcus aureus MRSA KS8, read-out: MIC) was 0.39 µM (≈ 0.626 µg/mL), the “MIC-fold improvement vs. vancomycin” value ([3]; MRSA KS2, ratio of MIC of vancomycin and MIC of analogue) was 2 and the MIC ([3]; Staphylococcus aureus MRSA KS2, read-out: MIC) was 0.39 µM (≈ 0.626 µg/mL). For the same molecule, the MIC ([4]; Staphylococcus aureus VSSA, read-out: MIC) was 0.10 µM (≈ 0.161 µg/mL), the “MIC-fold improvement vs. vancomycin” value ([4]; VSSA, ratio of MIC of vancomycin and MIC of analogue) was 8 and the MICvanc/MICi ([5]; E. faecalis VSE 1, ratio of MIC of vancomycin and MIC of analogue) was 16. The MIC ([5]; E. faecalis VSE 1) was 0.10 µM (≈ 0.161 µg/mL), the MIC ([5]; Enterococcus faecalis VSE 1 (vancomycin-sensitive)) was 0.10 µM (≈ 0.161 µg/mL) and the “MIC-fold improvement vs. vancomycin” value ([5]; VSE 1, ratio of MIC of vancomycin and MIC of analogue) was 16. For the same molecule, the IC50 ([6]; average of L1210, CEM and HeLa, read-out: Toxicity (IC50) Average) was over 250 µM, the IC50 ([6]; summary over the three cell lines, read-out: IC50 (L1210, CEM, HeLa), depending on the cell line used) was over 250 µM and the IC50 [7] was over 250 µM. For the same molecule, the MIC [8] was 25 µM (≈ 40.1 µg/mL), the “MIC-fold improvement vs. vancomycin” value [9] was 29 and the “MIC-fold improvement vs. vancomycin” value ([10]; MRSA KS1, ratio of MIC of vancomycin and MIC of analogue) was 4. The MIC ([10]; Staphylococcus aureus MRSA KS1, read-out: MIC) was 0.20 µM (≈ 0.321 µg/mL), the MICvanc/MICi ([11]; E. faecalis VRE 53, ratio of MIC of vancomycin and MIC of analogue) was 64 and the MIC ([11]; E. faecalis VRE 53) was 6.25 µM (≈ 10 µg/mL). For the same molecule, the MIC ([11]; Enterococcus faecalis VRE 53 (vancomycin-resistant)) was 6.25 µM (≈ 10 µg/mL), the “MIC-fold improvement vs. vancomycin” value ([11]; VRE 53, ratio of MIC of vancomycin and MIC of analogue) was 64 and the MIC [12] was 50 µM (≈ 80.3 µg/mL). For the same molecule, the MICvanc/MICi [12, 21] was 2, the IC50 [13] was over 250 µM and the MIC [14] was 0.20 µM (≈ 0.321 µg/mL). The MICvanc/MICi [14, 21] was 2, the MIC ([15]; Enterococcus faecalis VRE 29 (vancomycin-resistant), read-out: MIC) was 6.25 µM (≈ 10 µg/mL) and the “MIC-fold improvement vs. vancomycin” value ([15]; VRE 29, ratio of MIC of vancomycin and MIC of analogue) was 64. The “MIC-fold improvement vs. vancomycin” value ([16]; MRSA KS6, ratio of MIC of vancomycin and MIC of analogue) was 2, the MIC ([16]; Staphylococcus aureus MRSA KS6, read-out: MIC) was 0.39 µM (≈ 0.626 µg/mL) and the MICvanc/MICi ([17]; E. faecalis VRE 6, ratio of MIC of vancomycin and MIC of analogue) was 64. For the same molecule, the MIC ([17]; E. faecalis VRE 6) was 3.13 µM (≈ 5.03 µg/mL), the MIC ([17]; Enterococcus faecalis VRE 6 (vancomycin-resistant)) was 3.13 µM (≈ 5.03 µg/mL) and the “MIC-fold improvement vs. vancomycin” value ([17]; VRE 6, ratio of MIC of vancomycin and MIC of analogue) was 64. The IC50 [18] was over 250 µM, the MIC ([19]; Staphylococcus aureus VRSA, read-out: MIC) was 1.56 µM (≈ 2.5 µg/mL) and the “MIC-fold improvement vs. vancomycin” value ([19]; VRSA, ratio of MIC of vancomycin and MIC of analogue) was 64. For the same molecule, the “MIC-fold improvement vs. vancomycin” value [20] was 5.6.
